Our source for the LC retention time values is the RepoRT retention time repository (doi:10.1007/s00216-021-03828-0).

Each structure is given as a SMILES string.

Common to all, as to details: stereoisomer not certain
Data set [1] is described as follows: RP, Merck Supelco Ascentis Express C18, 100 × 2.1 mm, 2 µm, 40 °C, 0.25 mL/min, estimated dead time 0.88 min; A: water + 0.1% formic acid, pH 3; B: acetonitrile + 0.1% formic acid, pH 3; gradient (min/%B) 0/5 2/5 17/99.9 20/99.9.
Data set [2] is described as follows: RP, Merck Supelco Ascentis Express C18, 100 × 2.1 mm, 2 µm, 40 °C, 0.2 mL/min, estimated dead time 1.1 min; A: water + 0.1% formic acid, pH 3; B: acetonitrile + 0.1% formic acid, pH 3; gradient (min/%B) 0/5 2/5 17/99.9 20/99.9.
Data set [3] is described as follows: RP, Merck Supelco Ascentis Express C18, 100 × 2.1 mm, 2 µm, 39 °C, 0.3 mL/min, estimated dead time 0.73 min; A: water + 0.1% formic acid, pH 3; B: acetonitrile + 0.1% formic acid, pH 3; gradient (min/%B) 0/5 2/5 17/99.9 20/99.9.
Data set [4] in a line: RP, Merck Supelco Ascentis Express C18, 100 × 2.1 mm, 2 µm, 40 °C, 0.4 mL/min, estimated dead time 0.55 min; A: water + 0.1% formic acid, pH 3; B: acetonitrile + 0.1% formic acid, pH 3; gradient (min/%B) 0/5 2/5 17/99.9 20/99.9.

Regarding `O=C(O)c1cccc(O)c1` [3-HYDROXYBENZOATE], the LC retention time in data set [1] was 4.72 min; in data set [2], 5.31 min; in data set [3], 4.28 min; in data set [4] it was 3.62 min.
The like results for `COc1cc(CCN)ccc1O` [3-METHOXYTYRAMINE] were, in that order, 1.37 min, 1.78 min, 1.13 min and 0.863 min.
With `CC1C(=O)Nc2ccccc21` (stereo unspecified) [3-METHYL-2-OXINDOLE], the LC retention time in data set [1] was 6.5 min; in data set [2], 7.09 min; in data set [3], 6.16 min; in data set [4], 5.56 min.
Regarding `Cc1ccc(O)c(O)c1` [4-METHYLCATECHOL], the LC retention time in data set [1] is 1.97 min; in data set [2] it was 2.48 min; in data set [3], 1.62 min; in data set [4] it was 1.24 min.
Take `O=C1CCCCO1` [5-VALEROLACTONE]: the LC retention time in data set [1] is 3.24 min; in data set [2] it was 3.96 min; in data set [3], 2.73 min; in data set [4], 2.06 min.
Turning to `CC(C)CCCC(C)C1CCC2C3=CC=C4CC(O)CCC4(C)C3CCC21C` (stereo unspecified) [7-DEHYDROCHOLESTEROL], the LC retention time in data set [1] is 10.8 min; in data set [2], 11.4 min; in data set [3] it was 15.1 min; in data set [4] it was 9.92 min.
For the molecule `CC(CCCC(C)(C)O)C1CCC2C3CC=C4CC(O)CCC4(C)C3CCC12C` (stereo unspecified) [25-HYDROXYCHOLESTEROL], the LC retention time in data set [1] is 18.3 min; in data set [2], 13.4 min; in data set [3] it was 17.8 min; in data set [4], 17 min.
For the molecule `CCCCC(CC)COC(=O)c1ccccc1C(=O)OCC(CC)CCCC` (stereo unspecified) [BIS(2-ETHYLHEXYL)PHTHALATE], the LC retention time in data set [1] is 18.3 min; in data set [2], 19 min; in data set [3], 17.7 min; in data set [4], 17 min.
As to `Cn1c(=O)c2c(ncn2C)n(C)c1=O` [CAFFEINE], the LC retention time in data set [1] was 4.48 min; in data set [2], 4.96 min; in data set [3], 4.12 min; in data set [4] it was 3.63 min.
On to `CC12CCC(=O)C=C1CCC1C2C(O)CC2(C)C(C(=O)CO)CCC12` (stereo unspecified) [CORTICOSTERONE], for which the LC retention time in data set [1] was 8.66 min; in data set [2], 9.16 min; in data set [3] it was 8.25 min; in data set [4], 7.73 min.
Regarding `CC(=O)OCC(=O)C1CCC2C3CCC4=CC(=O)CCC4(C)C3CCC12C` (stereo unspecified) [DEOXYCORTICOSTERONE ACETATE], the LC retention time was 11.6 min in data set [1], 12.2 min in data set [2], 11.1 min in data set [3] and 10.5 min in data set [4].
The like results for `CC(C)=CCCC(C)C1CCC2C3CC=C4CC(O)CCC4(C)C3CCC12C` (stereo unspecified) [DESMOSTEROL] were, in that order, 15.8 min, 16.6 min, 15.1 min and 14.3 min.
In the case of `CC12CCC3c4ccc(O)cc4CCC3C1CCC2O` (stereo not drawn) [ESTRADIOL-17ALPHA], the LC retention time in data set [1] was 9.66 min; in data set [2] it was 10.3 min; in data set [3], 9.22 min; in data set [4], 8.64 min.
The like results for `CCOC(=O)Cc1c[nH]c2ccccc12` [ETHYL 3-INDOLEACETATE] were, in that order, 9.59 min, 10.2 min, 9.1 min and 8.46 min.
Turning to `NC(=O)CCCCC1CCSS1` (stereo unspecified) [LIPOAMIDE], the LC retention time was 7.07 min in data set [1], 7.65 min in data set [2], 6.65 min in data set [3] and 6.08 min in data set [4].
For `CCC=CCC1C(=O)CCC1CC(=O)OC` (stereo unspecified) [METHYL JASMONATE], the LC retention time is 10.5 min in data set [1], 11.2 min in data set [2], 9.96 min in data set [3] and 9.27 min in data set [4].
Turning to `CNCCc1c[nH]c2ccccc12` [N-METHYLTRYPTAMINE], the LC retention time in data set [1] was 4.33 min; in data set [2] it was 4.88 min; in data set [3] it was 3.89 min; in data set [4], 3.32 min.
For the molecule `CCCCCCCCC=CCCCCCCCCCCCCCC(=O)[O-]` [NERVONATE], the LC retention time in data set [1] was 18.7 min; in data set [2], 18.7 min; in data set [3], 18.2 min; in data set [4] it was 17.4 min.
As to `NCC(O)c1ccccc1` (stereo unspecified) [PHENYLETHANOLAMINE], the LC retention time is 1.09 min in data set [1], 1.4 min in data set [2], 0.883 min in data set [3] and 0.673 min in data set [4].
For the molecule `CC(=CCC1=C(C)C(=O)c2ccccc2C1=O)CCCC(C)CCCC(C)CCCC(C)C` (stereo unspecified) [PHYLLOQUINONE], the LC retention time is 14.7 min in data set [1], 15.5 min in data set [2], 14.1 min in data set [3] and 13.3 min in data set [4].
In the same order, the values of `O=C(O)c1ccc[nH]1` [PYRROLE-2-CARBOXYLATE] are 1.19 min, 1.54 min, 3.07 min and 0.73 min.
As to `NCCc1c[nH]c2ccc(O)cc12` [SEROTONIN], the LC retention time was 1.35 min in data set [1], 1.77 min in data set [2], 1.12 min in data set [3] and 0.857 min in data set [4].
The like results for `CC=CC=CC(=O)[O-]` [SORBATE] were, in that order, 6.4 min, 7.02 min, 5.93 min and 5.28 min.
The like results for `CCCCCCCCCCCCCCCC(O)C(N)CO` (stereo unspecified) [SPHINGANINE] were, in that order, 11.5 min, 12.1 min, 10.9 min and 10.6 min.
On to `CC(C)=CCCC(C)=CCCC(C)=CCCC=C(C)CCC=C(C)CCC=C(C)C` [SQUALENE], for which the LC retention time is 14.8 min in data set [1], 15.6 min in data set [2], 14 min in data set [3] and 13.6 min in data set [4].
The like results for `Cn1cnc2c1c(=O)[nH]c(=O)n2C` [THEOBROMINE] were, in that order, 2.12 min, 2.69 min, 1.78 min and 1.4 min.
Take `O=C/C=C/c1ccccc1` [TRANS-CINNAMALDEHYDE]: the LC retention time is 11.1 min in data set [1], 11.7 min in data set [2], 10.7 min in data set [3] and 10.1 min in data set [4].
With `NCCc1c[nH]c2ccccc12` [TRYPTAMINE], the LC retention time in data set [1] was 3.97 min; in data set [2], 4.56 min; in data set [3] it was 3.5 min; in data set [4], 2.77 min.
On to `NCCc1ccc(O)cc1` [TYRAMINE], for which the LC retention time in data set [1] is 1.09 min; in data set [2], 1.4 min; in data set [3], 0.883 min; in data set [4] it was 0.673 min.
